Source: PMC11490426, “Structure-activity relationship of amino acid analogs to probe the binding pocket of sodium-coupled neutral amino acid transporter SNAT2” (Amino Acids, 2024)
Structures can show the parent of a compound that is named as a salt.

Experiments:
SNAT2 [1] = molecular target: T1, SNAT2 (Homo sapiens, UniProt Q96QD8); assay: Inhibition of SNAT2-mediated 3H-glycine uptake in hyperosmotically treated PC-3 cells; format: cell-based
T1 construct: hyperosmotically treated PC-3 cells, known to upregulate SNAT2; endogenous in cells; host or cells: PC-3 prostate cells exposed to hyperosmotic medium for 24 h
T1 sequence (Q96QD8 1-506): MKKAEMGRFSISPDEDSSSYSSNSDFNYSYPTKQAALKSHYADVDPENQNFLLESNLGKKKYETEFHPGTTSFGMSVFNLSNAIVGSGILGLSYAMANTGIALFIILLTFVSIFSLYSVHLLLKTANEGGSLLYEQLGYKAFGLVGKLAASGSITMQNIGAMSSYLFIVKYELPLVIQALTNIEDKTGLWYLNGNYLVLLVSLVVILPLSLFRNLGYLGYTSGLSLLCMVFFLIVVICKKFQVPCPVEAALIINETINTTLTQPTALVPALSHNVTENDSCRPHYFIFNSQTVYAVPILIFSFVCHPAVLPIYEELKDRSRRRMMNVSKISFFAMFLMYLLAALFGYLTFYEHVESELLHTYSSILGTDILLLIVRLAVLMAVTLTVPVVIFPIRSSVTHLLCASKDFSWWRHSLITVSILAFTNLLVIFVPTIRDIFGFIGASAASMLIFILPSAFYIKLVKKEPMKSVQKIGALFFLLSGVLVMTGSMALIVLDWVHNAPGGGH
Protocol: Where Y is the % uptake, X is the concentration of the inhibitor, Top and Bottom are the top and bottom plateau respectively, and IC50 is the half maximal inhibitory concentration. These studies were performed in at least 3 independent cell passages (n = 3) and a curve was defined for each independent passage. However, for each compound, the top and bottom were constrained to be the same amongst the different cell passages.

SNAT2 [2] = molecular target: T1, SNAT2; assay: Intracellular amino acids and analogs quantified by OPA derivatization and HPLC-Fl after uptake in PC-3 cells; format: cell-based; conditions: 0.4 mM compound, 30 min uptake, pH 7.4
Protocol: Derivatization of AAs and analogs using o-phthalaldehyde (OPA) and 2-mercaptoethanol (2-ME) to make fluorescent derivatives was used to measure the intracellular amounts of AAs and analogs following uptake in hyperosmotically treated PC-3 cells. Before starting the experiment, the medium was aspirated, and the cells were preincubated in HBSS + for 15 min at 37 °C and 220 rpm. The cells were then incubated with 500 µL HBSS+ (background) or HBSS + containing AAs or analogs at given concentrations for 30 min at 37 °C and 220 rpm. After aspirating the donor solutions, the cells were washed thrice with 500 µL of ice-cold PBS while keeping the cells on ice. 200 µL of ice-cold 1x-trypsin was added to each well and allowed to distribute for 20–30 min while keeping the cells on ice. The plate was then transferred to an incubating microplate shaker at 37 °C and 220 rpm for about 8 min or until the cells had detached. 300 µL of ice-cold PBS was added to each well to resuspend the cells and transfer them to centrifuge tubes. The cells were centrifuged at 1000 G for 5 min (4 °C), the supernatant was removed, the cells were resuspended in 300 µL ice-cold PBS, and then centrifuged again at 1000 G for 5 min (4 °C). After removing the supernatant, the cell pellet was lysed by adding 100 µL of 80% methanol (20% ultrapure water) and placing the tubes in an ultrasonic bath for 10 min. The tubes were then centrifuged at 15,000 G for 15 min (4 °C) and the resulting supernatant was used for analysis.
The OPA reagent was prepared by spiking with 2 µL 2-ME per mL of OPA regent and was considered stable for use within one day. 10 µL of the cell samples or standards containing a mixture of the AAs and analogs of interest were placed in HPLC vials with 100 µL inserts. […] The autosampler kept the samples at 10 °C and the pretreatment function was used to automatically mix the samples with 10 µL of the OPA reagent and wait 4 min before loading 2 µL onto a YMC-Triart C18 column (75 × 3.0 mm, 1.9 μm, Mikrolab Aarhus, Viby J, Denmark). […] The fluorescence detector was set to excite at 350 nm and detect at 450 nm.
The resulting chromatograms were integrated and the area under the curve (AUC) of the standard samples was used to generate standard curves to determine the concentration of AAs and analogs in the cell samples. […] Amino acid levels detected in the background cell samples were subtracted from the other cell samples.

[3] = Stability in aqueous solution by HPLC-UV; format: physicochemical; conditions: 1 mM in ultrapure water, room temperature, over 3 days
From the text: The resulting chromatograms were integrated and the area under the curve (AUC) of the standard samples was used to generate standard curves to determine the concentration of AAs and analogs in the cell samples. The pooled standard curves and example chromatograms can be seen in the SI (Figs. S2, S3). Amino acid levels detected in the background cell samples were subtracted from the other cell samples. L-Alanine benzyl ester only generated a peak with an equal retention time as L-alanine. It was assessed that the addition of OPA reagent increased the hydrolysis of the ester, thus only creating the L-alanine OPA derivative. […] Thus, the L-alanine peak was used to measure the presence of L-alanine benzyl ester in samples.
Fig. S4 HPLC-UV chromatograms of L-alanine benzyl ester and benzyl alcohol dissolved in ultrapure water. The samples were analyzed using a Waters 2695 HPLC system connected to a Waters 2487 Dual λ Absorbance Detector (Waters Corporation, MA, USA). The peaks were separated using a Sunfire C18 column (4.6 x 150 mm, 3.5 µm, Waters Corporation, MA, USA) at 45 °C and with a 0.7 ml/min flow of 70% mobile phase A (90/10% H2O/MeCN + 0.1% trifluoroacetic acid (TFA)) and 30% mobile phase B (10/90% H2O/MeCN + 0.1% TFA). 10 µL samples were injected and the peaks were detected at 254 nm. […]

SNAT2 [4] = molecular target: T1, SNAT2; assay: FLIPR membrane potential (FMP) assay in PC-3 cells; format: cell-based; conditions: hyperosmotically treated PC-3 cells
Protocol: PC-3 cells exposed to hyperosmotic media for 24 h were used to identify SNAT2 substrates in the FMP assay. The media was aspirated, and the cells were preincubated in HBSS + for 10 min at 37 °C and 220 rpm. Then the buffer was aspirated, and cells were then incubated in 50 µL HBSS + containing 0.55 mg ⋅ mL^− 1 (1x) FMP probe (Blue component A from Molecular Devices, San Jose, CA, USA) for 30 min at 37 °C and 220 rpm. […] First, the baseline was measured for 30 s by measuring each well every 3 s. The plate was then removed from the reader and 50 µL of substrate solutions containing 0.55 mg ⋅ mL^− 1 FMP probe was added. These solutions were prepared by mixing equal parts solution containing 2x FMP probe and solutions containing 4x the final concentration of substrate. […] Following this, the baseline of the next column was measured and followed the same procedure as just described.
For the FMP data, the baseline was defined as the mean fluorescence of the first data point before substrate addition. The baseline of each well was then subtracted from the data point to get the ΔF. Plotting ΔF as a function of time and calculating the area under the curve (AUC) after substrate addition was used as a measure of SNAT2 activity.

PC-3 cells = assay: CellTiter-Glo viability assay; format: cell-based, human; conditions: 20 mM, after 10 min of exposure, hyperosmotically treated PC-3 cells
Protocol: ^3H-glycine uptake in hyperosmotically treated PC-3 cells was performed as previously described (Jakobsen et al. [2023]). 5-minute uptake of 0.5 µCi ⋅ mL^− 1 3H-glycine (11.1 nM) was used, and each uptake was normalized to the uptake obtained in a control situation (31.2 ± 5.7 fmol ⋅ cm^− 2 ⋅ min^− 1) without subtracting the background uptake (2.62 ± 0.67 fmol ⋅ cm^− 2 ⋅ min^− 1). Compounds that inhibited uptake by more than 20% at the highest tested concentrations were tested in the CellTiter-Glo viability assay (Promega, Madison, WI, USA), to rule out that the observed inhibition was not caused by reduced cell viability (Fig. S1 in Supplementary Information SI).
Fig. S1 Cell viability of hyperosmotically treated PC-3 cells after 10 min incubation with various amino acids and analogs using the CellTiter-Glo assay. […] The plate was placed in a CLARIOstar® Plus plate reader from BMG LABTECH (Ortenberg, Germany) at room temperature and was then shaken for 2 minutes at 220 rpm. Luminescence was measured after 0, 5, 10, and 15 minutes. Background luminescence (obtained from adding CellTiter-Glo reagent to HBSS+ containing wells without cells) was subtracted from the sample luminescence and normalized to control wells only exposed to HBSS+ to determine the % viability. […] Statistically significant differences from the control detected by one-way ANOVA are shown (*: p < 0.05).

- IC50 (SNAT2 [1]; hyperosmotically treated PC-3 cells, 5 min uptake of 11.1 nM 3H-glycine, pH 7.4, read-out: IC50): 390 µM
- fold change of intracellular accumulation in absence vs presence of 10 mM L-glutamine (SNAT2 [2]): 6.7 fold
- stability in aqueous solution [3]: stability was confirmed
- AUC of fluorescence response-time curve (SNAT2 [4]; 5 mM compound): 8.1 ± 1.4 10^5 RFU ∙ s
- AUC of fluorescence response-time curve (SNAT2 [4]; 10 mM compound): -1.4 ± 3.2 10^5 RFU ∙ s
- AUC, % of 10 mM L-alanine (SNAT2 [4]; 10 mM compound): -6.6 ± 14%
SMILES: C[C@H](N)C(=O)OCc1ccccc1 [L-Alanine benzyl ester, L-alanine benzyl ester hydrochloride]
- inhibition of 3H-glycine uptake at different pH levels (SNAT2 [1]; pH 6.8, 7.4 and 8.0, 0.4 mM L-alanine benzyl ester or 0.2 mM L-alanine, two-way ANOVA): no significant differences in inhibition at the different pH levels
- response in the FMP assay (stimulation of SNAT2 activity) (SNAT2 [4]; result in words): little or no stimulation of SNAT2 activity
- decrease in cell viability (PC-3 cells): 23%
